Results taken from ChEMBL document CHEMBL3272271, “Folate antagonists. 13. 2,4-Diamino-6-](alpha,alpha,alpha-trifluoro-m-tolyl)thio]quinazoline and related 2,4-diamino-6-[(phenyl- and naphthyl)thio]quinazolines, a unique class of antimetabolites with extraordinary antimalarial and antibacterial effects” (J Med Chem, 1978).
≈ marks a conversion by molar mass, not a printed value. Calls of active or inactive are those of the source. No cut-off for these calls is given here.

Tests used:
[1] = system: Plasmodium berghei; test: Antimalarial activity against Plasmodium berghei infected in mouse assessed as disease cure from parasite infection at 640 mg/kg, sc administered 72 hrs after infection; format: functional, organism-based; set-up: dose 640 mg/kg
[2] = system: Plasmodium gallinaceum; test: Antimalarial activity against trophozoite-induced Plasmodium gallinaceum infected in white leghorn chicken assessed as increase in mean survival days of host at 0.63 mg/kg, sc administered 72 hrs after infection relative to control; format: functional; conditions: route subcutaneous
[3] = system: Plasmodium gallinaceum; test: Antimalarial activity against trophozoite-induced Plasmodium gallinaceum infected in white leghorn chicken assessed as increase in mean survival days of host at 40 mg/kg, sc administered 72 hrs after infection relative to control; format: functional; conditions: route subcutaneous
[4] = system: Escherichia coli; test: Antibacterial activity against Escherichia coli Vogel by gradient plate test; format: functional
[5] = system: Plasmodium berghei; test: Antimalarial activity against trophozoite-induced Plasmodium berghei infected in mouse assessed as daily dose required to suppression of 90% parasite infection administered with diet for 6 days; format: functional
[6] = system: Plasmodium berghei; test: Antimalarial activity against Plasmodium berghei infected in mouse assessed as disease cure from parasite infection at 40 mg/kg, sc administered 72 hrs after infection; format: functional, organism-based; set-up: dose 40 mg/kg
[7] = system: Plasmodium gallinaceum; test: Antimalarial activity against trophozoite-induced Plasmodium gallinaceum infected in white leghorn chicken assessed as increase in mean survival days of host at 160 mg/kg, sc administered 72 hrs after infection relative to control; format: functional; conditions: route subcutaneous
[8] = system: Shigella sonnei; test: Antibacterial activity against Shigella sonnei C-10 by gradient plate test; format: functional
[9] = system: Plasmodium gallinaceum; test: Antimalarial activity against trophozoite-induced Plasmodium gallinaceum infected in white leghorn chicken assessed as increase in mean survival days of host at 20 mg/kg, sc administered 72 hrs after infection relative to control; format: functional; conditions: route subcutaneous
[10] = system: Plasmodium gallinaceum; test: Antimalarial activity against trophozoite-induced Plasmodium gallinaceum infected in white leghorn chicken assessed as increase in mean survival days of host at 10 mg/kg, sc administered 72 hrs after infection relative to control; format: functional; conditions: route subcutaneous
[11] = system: Plasmodium gallinaceum; test: Antimalarial activity against trophozoite-induced Plasmodium gallinaceum infected in white leghorn chicken assessed as disease cure from parasite infection at 160 mg/kg, sc administered 72 hrs after infection; format: functional, organism-based; set-up: dose 160 mg/kg
[12] = system: Pseudomonas aeruginosa; test: Antibacterial activity against Pseudomonas aeruginosa 28 by gradient plate test; format: functional
[13] = system: Mus musculus; test: Toxicity in Plasmodium berghei infected mouse assessed as mortality at 640 mg/kg, sc administered 72 hrs after infection measured after 2 to 5 days; format: organism-based; set-up: dose 640 mg/kg, route subcutaneous; conditions: in vivo
[14] = system: Plasmodium berghei; test: Antimalarial activity against Plasmodium berghei infected in mouse assessed as increase in mean survival days of host at 1.25 mg/kg, sc administered 72 hrs after infection relative to control; format: functional; conditions: route subcutaneous
[15] = system: Plasmodium berghei; test: Antimalarial activity against Plasmodium berghei infected in mouse assessed as disease cure from parasite infection at 160 mg/kg, sc administered 72 hrs after infection; format: functional, organism-based; set-up: dose 160 mg/kg
[16] = system: Plasmodium berghei; test: Antimalarial activity against Plasmodium berghei infected in mouse assessed as disease cure from parasite infection at 320 mg/kg, sc administered 72 hrs after infection; format: functional, organism-based; set-up: dose 320 mg/kg
[17] = system: Plasmodium berghei; test: Antimalarial activity against Plasmodium berghei infected in mouse assessed as increase in mean survival days of host at 20 mg/kg, sc administered 72 hrs after infection relative to control; format: functional; conditions: route subcutaneous
[18] = system: Plasmodium gallinaceum; test: Antimalarial activity against trophozoite-induced Plasmodium gallinaceum infected in white leghorn chicken assessed as increase in mean survival days of host at 80 mg/kg, sc administered 72 hrs after infection relative to control; format: functional; conditions: route subcutaneous
[19] = system: Plasmodium berghei; test: Antimalarial activity against Plasmodium berghei infected in mouse assessed as increase in mean survival days of host at 10 mg/kg, sc administered 72 hrs after infection relative to control; format: functional; conditions: route subcutaneous
[20] = system: Staphylococcus aureus; test: Antibacterial activity against drug-resistant Staphylococcus aureus S18713 by gradient plate test; format: functional
[21] = system: Enterococcus faecalis; test: Antibacterial activity against Streptococcus faecalis MGH-2 by gradient plate test; format: functional
[22] = system: Plasmodium gallinaceum; test: Antimalarial activity against trophozoite-induced Plasmodium gallinaceum infected in white leghorn chicken assessed as increase in mean survival days of host at 1.25 mg/kg, sc administered 72 hrs after infection relative to control; format: functional; conditions: route subcutaneous
[23] = system: Plasmodium gallinaceum; test: Antimalarial activity against trophozoite-induced Plasmodium gallinaceum infected in white leghorn chicken assessed as disease cure from parasite infection at 320 mg/kg, sc administered 72 hrs after infection; format: functional, organism-based; set-up: dose 320 mg/kg
[24] = system: Plasmodium berghei; test: Antimalarial activity against Plasmodium berghei infected in mouse assessed as increase in mean survival days of host at 40 mg/kg, sc administered 72 hrs after infection relative to control; format: functional; conditions: route subcutaneous
[25] = system: Plasmodium berghei; test: Ratio of quinine hydrochloride SD90 to compound SD90 for trophozoite-induced Plasmodium berghei infected in mouse assessed as daily dose required to suppression of 90% parasite infection administered with diet for 6 days; format: functional
[26] = system: Plasmodium berghei; test: Antimalarial activity against Plasmodium berghei infected in mouse assessed as increase in mean survival days of host at 5 mg/kg, sc administered 72 hrs after infection relative to control; format: functional; conditions: route subcutaneous
[27] = system: Plasmodium berghei; test: Antimalarial activity against Plasmodium berghei infected in mouse assessed as disease cure from parasite infection at 80 mg/kg, sc administered 72 hrs after infection; format: functional, organism-based; set-up: dose 80 mg/kg
[28] = system: Plasmodium gallinaceum; test: Antimalarial activity against trophozoite-induced Plasmodium gallinaceum infected in white leghorn chicken assessed as increase in mean survival days of host at 5 mg/kg, sc administered 72 hrs after infection relative to control; format: functional; conditions: route subcutaneous
[29] = system: Plasmodium gallinaceum; test: Antimalarial activity against trophozoite-induced Plasmodium gallinaceum infected in white leghorn chicken assessed as increase in mean survival days of host at 320 mg/kg, sc administered 72 hrs after infection relative to control; format: functional; conditions: route subcutaneous
[30] = system: Plasmodium gallinaceum; test: Antimalarial activity against trophozoite-induced Plasmodium gallinaceum infected in white leghorn chicken assessed as increase in mean survival days of host at 2.5 mg/kg, sc administered 72 hrs after infection relative to control; format: functional; conditions: route subcutaneous
[31] = system: Plasmodium berghei; test: Antimalarial activity against Plasmodium berghei infected in mouse assessed as increase in mean survival days of host at 2.5 mg/kg, sc administered 72 hrs after infection relative to control; format: functional; conditions: route subcutaneous
[32] = system: Staphylococcus aureus; test: Antibacterial activity against Staphylococcus aureus UC-96 by gradient plate test; format: functional

Cc1ccccc1Sc1ccc2nc(N)nc(N)c2c1
Activity [1]: Active
MST [2]: 0 days
MST [3]: 11 days
MIC [4]: < 0.25 µg/mL
SD90 [5]: 4.1 mg/kg/day
Activity [6]: Active
MST [7]: 17 days
MIC [8]: 1 µg/mL (≈ 3.54 µM)
MST [9]: 7.6 days
MST [10]: 6.6 days
Activity [11]: Active
MIC [12]: > 25 µg/mL
Activity [13]: Toxic
MST [14]: 1.1 days
Activity [15]: Active
Activity [16]: Active
MST [17]: 10.5 days
MST [18]: 12 days
MST [19]: 9.9 days
MIC [20]: < 0.25 µg/mL
MIC [21]: < 0.25 µg/mL
MST [22]: 0 days
Activity [23]: Active
MST [24]: 17 days
Ratio [25]: 18
MST [26]: 7.3 days
Activity [27]: Active
MST [28]: 2.4 days
MST [29]: 16 days
MST [30]: 0 days
MST [31]: 5.5 days
MIC [32]: < 0.25 µg/mL
